{"source": "patent US20030093057A1", "about": "“Methods and formulations for photodynamic therapy” (priority 2001, published 2003)", "origin": "cited, not measured here", "key": {"[1]": {"conditions": "mouse skin"}, "[2]": {"conditions": "human skin"}}, "note": "Where two headings read alike, the source gives them in different places."}
{"compound": "NCC(=O)CCC(=O)O", "note": "[ALA, delta-aminolevulinic acid]", "values": [{"measurement": "penetration of ALA into skin at increased temperature", "setting": "[1]", "value": "did not cause increased penetration"}, {"measurement": "penetration of ALA into skin at increased temperature", "setting": "[2]", "value": "did not cause increased penetration"}]}
